{"source": "paper PMC10963303", "about": "(Pharmacology Research & Perspectives, 2024)", "key": {"[1]": {"tested_on": "human P‐gp, BCRP, BSEP, MATE1, MATE2‐K, OAT1, OAT3, OATP1B1, OATP1B3, OCT1, OCT2", "details": "tested transporter panel (ulotaront: except OCT2); cited from earlier work"}, "OAT3": {"tested_on": "OAT3", "details": "at 50 μM; cited from earlier work"}, "[2]": {"details": "human, in vivo, po, 100 mg"}, "MATE1": {"tested_on": "MATE1", "details": "at 50 μM; cited from earlier work"}, "[3]": {"tested_on": "80 known receptors, ion channels, and enzyme targets", "experiment": "Screen of 80 known receptors, ion channels, and enzyme targets", "details": "concentrations up to 10 μM; internal data"}, "OCT2 [4]": {"molecular_target": "T1, OCT2 (Homo sapiens, UniProt O15244)", "T1 sequence (O15244 1-555)": "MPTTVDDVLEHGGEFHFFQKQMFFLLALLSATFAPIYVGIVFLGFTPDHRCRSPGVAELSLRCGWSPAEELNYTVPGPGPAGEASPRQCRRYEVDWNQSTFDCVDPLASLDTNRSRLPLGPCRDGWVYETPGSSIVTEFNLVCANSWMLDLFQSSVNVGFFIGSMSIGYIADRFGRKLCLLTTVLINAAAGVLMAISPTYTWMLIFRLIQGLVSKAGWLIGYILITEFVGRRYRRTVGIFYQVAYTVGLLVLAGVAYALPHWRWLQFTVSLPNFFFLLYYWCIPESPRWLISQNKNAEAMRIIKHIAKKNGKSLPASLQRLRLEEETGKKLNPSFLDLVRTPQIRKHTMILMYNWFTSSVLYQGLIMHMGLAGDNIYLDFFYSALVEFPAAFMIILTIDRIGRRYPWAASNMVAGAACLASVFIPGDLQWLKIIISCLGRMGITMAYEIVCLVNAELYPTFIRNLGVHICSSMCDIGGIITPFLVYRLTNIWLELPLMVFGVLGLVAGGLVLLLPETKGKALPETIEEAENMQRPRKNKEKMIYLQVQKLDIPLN", "design": "[…]; from tissue; host or cells: kidney of adult human subjects with schizophrenia (in vivo clinical study)", "details": "cited from earlier work"}, "[5]": {"details": "plasma; placebo + metformin‐HCl 850 mg single dose"}, "clinical": {"experiment": "clinical", "details": "human, in vivo"}, "OCT2 [6]": {"molecular_target": "T1, OCT2", "experiment": "clinical", "details": "plasma, oral"}}, "note": "Read-outs that look alike come from different tables or passages of the source.", "data": [{"smiles": "O=C(O)[C@@H]1OCCc2ccsc21", "note": "[SEP‐383103]", "values": [{"measurement": "inhibitor of human efflux and uptake transporters", "setting": "[1]", "result": "not an inhibitor"}, {"measurement": "inhibition of OAT3", "setting": "OAT3", "result": "~ 35%"}, {"measurement": "AUCinf, Geometric mean (CV%)", "setting": "[2]", "result": "2510 (30.1) ng * h/mL"}, {"measurement": "AUCinf, Mean (SD)", "setting": "[2]", "result": "2620 (797) ng * h/mL"}, {"measurement": "AUCinf, Median (min, max)", "setting": "[2]", "result": "2490 (1550, 4810) ng * h/mL"}, {"measurement": "AUClast, Geometric mean (CV%)", "setting": "[2]", "result": "2520 (29.7) ng * h/mL"}, {"measurement": "AUClast, Mean (SD)", "setting": "[2]", "result": "2630 (780) ng * h/mL"}, {"measurement": "AUClast, Median (min, max)", "setting": "[2]", "result": "2490 (1540, 4760) ng * h/mL"}, {"measurement": "C max, Geometric mean (CV%)", "setting": "[2]", "result": "150 (22.6) ng/mL"}, {"measurement": "C max, Mean (SD)", "setting": "[2]", "result": "154 (34.9) ng/mL"}, {"measurement": "C max, Median (min, max)", "setting": "[2]", "result": "156 (99.7, 255) ng/mL"}, {"measurement": "t 1/2, Mean (SD)", "setting": "[2]", "result": "9.17 (1.78) h"}, {"measurement": "t max, Median (min, max)", "setting": "[2]", "result": "6.00 (3.00, 8.00) h"}, {"measurement": "inhibition of MATE1", "setting": "MATE1", "result": "~ 20%"}, {"measurement": "binding or functional activity in screen of 80 targets", "setting": "[3]", "result": "did not identify binding or functional activity"}]}, {"smiles": "C[C@@H]1CCO[C@H]2Cn3cc(C(=O)NCc4ccc(F)cc4F)c(=O)c(O)c3C(=O)N12", "note": "[dolutegravir]", "values": [{"measurement": "increase of metformin AUC", "setting": "OCT2 [4]; co‐administration of 50 mg dolutegravir bid", "result": 145, "unit": "%"}, {"measurement": "increase of metformin AUC", "setting": "OCT2 [4]; co‐administration of 50 mg dolutegravir qd", "result": 79, "unit": "%"}, {"measurement": "unbound C max/IC50 ratio (OCT2)", "setting": "OCT2 [4]; dolutegravir oral 50 mg qd or bid", "result": "2–3.6"}]}, {"smiles": "CN(C)C(=N)N=C(N)N", "note": "[metformin]", "values": [{"measurement": "t max, Median (min, max)", "setting": "[5]", "result": "4.0 (2.0, 5.0) h"}, {"measurement": "Cmax", "setting": "clinical", "result": 1130, "unit": "ng/mL"}, {"measurement": "Tmax", "setting": "clinical", "result": 4.5, "unit": "h"}, {"measurement": "Vd/F", "setting": "clinical", "result": 1280, "unit": "L"}, {"measurement": "CL renal", "setting": "clinical; po, 850 mg", "result": 287, "unit": "mL/min"}, {"measurement": "AUC(0-inf)", "setting": "OCT2 [6]", "result": 12500, "unit": "ng·h/mL"}]}]}
